Here are results for 15 compounds from patent publication US20250302815A1, “PROTEIN TYROSINE PHOSPHATASE TARGETING LIGANDS” (CALICO LIFE SCIENCES LLC, priority 2021, published 2025).

One assay has as its target T1, PTPN2 (B16F10.4 cells) (Mus musculus, UniProt Q06180).
T1 construct: HiBiT; host or cells: B16F10.4
T1 sequence (Q06180 1-406): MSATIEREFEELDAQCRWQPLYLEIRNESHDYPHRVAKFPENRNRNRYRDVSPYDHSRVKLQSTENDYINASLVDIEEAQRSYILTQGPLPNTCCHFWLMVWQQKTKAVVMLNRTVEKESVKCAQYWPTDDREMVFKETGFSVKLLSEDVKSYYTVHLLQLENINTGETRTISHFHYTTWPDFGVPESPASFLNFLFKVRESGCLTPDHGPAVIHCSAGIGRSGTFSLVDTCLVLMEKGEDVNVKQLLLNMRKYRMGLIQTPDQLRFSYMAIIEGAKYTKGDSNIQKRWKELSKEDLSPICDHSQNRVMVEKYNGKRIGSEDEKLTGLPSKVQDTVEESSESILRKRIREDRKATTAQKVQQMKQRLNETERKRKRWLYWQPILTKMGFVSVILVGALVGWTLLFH
As to the kind of experiment: HiBiT Degradation B16F10.4 PTPN2. The class given is cell-based. Conditions: 24.0 hours. In general terms: The HiBiT peptide binds its large partner to form an active luciferase.

Assay [1] deals with T2, PTPN2 (HiBIT-PTPN2 in 293T.109 cells) (Homo sapiens, UniProt P17706).
T2 construct: expressed in transfected cells; host or cells: 293T.109 (293T WT from ATCC)
T2 sequence (P17706 1-415): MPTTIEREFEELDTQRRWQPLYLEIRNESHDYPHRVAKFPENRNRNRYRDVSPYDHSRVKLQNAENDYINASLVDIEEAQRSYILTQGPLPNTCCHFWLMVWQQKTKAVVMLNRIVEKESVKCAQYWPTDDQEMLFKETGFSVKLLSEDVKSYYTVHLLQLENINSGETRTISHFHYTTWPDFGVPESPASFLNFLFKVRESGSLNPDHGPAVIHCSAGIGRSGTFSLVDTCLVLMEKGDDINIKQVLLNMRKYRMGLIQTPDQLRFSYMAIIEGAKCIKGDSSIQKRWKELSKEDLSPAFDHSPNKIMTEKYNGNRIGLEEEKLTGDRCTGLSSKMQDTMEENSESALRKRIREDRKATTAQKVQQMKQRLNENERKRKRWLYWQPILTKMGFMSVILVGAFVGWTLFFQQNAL
Nature of the assay: HiBiT Degradation 293T.109 PTPN2 (Nano-Glo HiBiT Lytic Assay). Conditions: 24.0 hours. The class given is cell-based. The procedure, abridged:
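Degradation read-out: lytic HiBiT luminescence after 24 h treatment (37 °C, 5% CO2) of 5000 293T cells per well expressing HiBiT-fused PTPN2 from an N-terminal tag. Dosing was 11 points, half-log steps down from 10 μM, in duplicate; vehicle-treated and no-reagent wells served as controls.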

Take `CC1(C)C[C@@H](Nc2cccc(-c3sc(C(=O)O)c(OCC(=O)O)c3Cl)c2)CCN1S(=O)(=O)Cc1cccc(NC(=O)C2CCN(C(=O)CCc3cccc4c3CN(C3CCC(=O)NC3=O)C4=O)CC2)c1` (stereo partly drawn) [Example 61, 3-(carboxymethoxy)-4-chloro-5-(3-(((4S)-1-((3-(1-(3-(2-(2,6-dioxopiperidin-3-yl)-1-oxoisoindolin-4-yl)propanoyl)piperidine-4-carboxamido)benzyl)sulfonyl)-2,2-dimethylpiperidin-4-yl)amino)phenyl)thiophene-2-carboxylic acid]: the DC50 (on PTPN2 (B16F10.4 cells); in assay [1]) was 0.2 to 1 µM in each case.

For `CC1(C)C[C@@H](Nc2cccc(-c3sc(C(=O)O)c(OCC(=O)O)c3Cl)c2)CCN1S(=O)(=O)Cc1cccc(NC(=O)CCOCCn2cc(CNc3cccc4c3C(=O)N(C3CCC(=O)NC3=O)C4=O)nn2)c1` (stereo partly drawn) [Example 15, 3-(carboxymethoxy)-4-chloro-5-(3-(((4S)-1-((3-(3-(2-(4-(((2-(2,6-dioxopiperidin-3-yl)-1,3-dioxoisoindolin-4-yl)amino)methyl)-1H-1,2,3-triazol-1-yl)ethoxy)propanamido)benzyl)sulfonyl)-2,2-dimethylpiperidin-4-yl)amino)phenyl)thiophene-2-carboxylic acid], the DC50 (on PTPN2 (B16F10.4 cells); in assay [1]) was 0.2 to 1 µM each time.

For the compound `Cn1c(=O)n(C2CCC(=O)NC2=O)c2ccc(C#CCNC(=O)Nc3cccc(CS(=O)(=O)N4CC[C@H](Nc5cccc(-c6sc(C(=O)O)c(OCC(=O)O)c6Cl)c5)CC4(C)C)c3)cc21` (stereo partly drawn) [Example 91, 3-(carboxymethoxy)-4-chloro-5-(3-(((4S)-1-((3-(3-(3-(1-(2,6-dioxopiperidin-3-yl)-3-methyl-2-oxo-2,3-dihydro-1H-benzo[d]imidazol-5-yl)prop-2-yn-1-yl)ureido)benzyl)sulfonyl)-2,2-dimethylpiperidin-4-yl)amino)phenyl)thiophene-2-carboxylic acid], the DC50 (at PTPN2 (B16F10.4 cells); in assay [1]) was 0.05 to 0.2 µM throughout.

Consider `Cn1nc(C2CCC(=O)NC2=O)c2ccc(CCC(=O)Nc3cccc(CS(=O)(=O)N4CCC(Nc5cccc(-c6sc(C(=O)O)c(OCC(=O)O)c6Cl)c5)CC4)c3)cc21` (stereo not drawn) [Example 157, 3-(carboxymethoxy)-4-chloro-5-[3-[[1-[[3-[3-[3-(2,6-dioxo-3-piperidyl)-1-methyl-indazol-6-yl]propanoylamino]phenyl]methylsulfonyl]-4-piperidyl]amino]phenyl]thiophene-2-carboxylic acid], for which the DC50 (at PTPN2 (B16F10.4 cells); in assay [1]) was 0.2 to 1 µM in each case.

In the case of `O=C(O)COc1c(C(=O)O)sc(-c2cccc(NC3CCN(S(=O)(=O)Cc4cccc(NC(=O)CCCCCN5CCC(Nc6cccc7c6CN(C6CCC(=O)NC6=O)C7=O)CC5)c4)CC3)c2)c1Cl` (stereo not drawn) [Example 33, 3-(carboxymethoxy)-4-chloro-5-[3-[[1-[[3-[6-[4-[[2-(2,6-dioxo-3-piperidyl)-1-oxo-isoindolin-4-yl]amino]-1-piperidyl]hexanoylamino]phenyl]methylsulfonyl]-4-piperidyl]amino]phenyl]thiophene-2-carboxylic acid], the DC50 is at least 1 µM on PTPN2 (B16F10.4 cells) and 0.2 to 1 µM in assay [1].

Take `CC(Nc1cccc2c1CN(C1CCC(=O)NC1=O)C2=O)C(=O)NCCCCCCC(=O)Nc1cccc(CS(=O)(=O)N2CCC(Nc3cccc(-c4sc(C(=O)O)c(OCC(=O)O)c4Cl)c3)CC2)c1` (stereo not drawn) [Example 26, 3-(carboxymethoxy)-4-chloro-5-[3-[[1-[[3-[7-[2-[[2-(2,6-dioxo-3-piperidyl)-1-oxo-isoindolin-4-yl]amino]propanoylamino]heptanoylamino]phenyl]methylsulfonyl]-4-piperidyl]amino]phenyl]thiophene-2-carboxylic acid]: the figures for the DC50 (at PTPN2 (B16F10.4 cells); in assay [1]) were at least 1 µM and 0.2 to 1 µM, respectively.

On to `Cn1c(=O)n(C2CCC(=O)NC2=O)c2ccc(N3CCC(NCCNc4cccc(CS(=O)(=O)N5CC[C@H](Nc6cccc(-c7sc(C(=O)O)c(OCC(=O)O)c7Cl)c6)CC5(C)C)c4)CC3)cc21` (stereo partly drawn) [Example 197, 3-(carboxymethoxy)-4-chloro-5-[3-[[(4S)-1-[[3-[2-[[1-[1-(2,6-dioxo-3-piperidyl)-3-methyl-2-oxo-benzimidazol-5-yl]-4-piperidyl]amino]ethylamino]phenyl]methylsulfonyl]-2,2-dimethyl-4-piperidyl]amino]phenyl]thiophene-2-carboxylic acid], for which the DC50 at PTPN2 (B16F10.4 cells) was 0.05 to 0.2 µM; in assay [1] it was under 0.05 µM.

For the compound `CC1(C)C[C@@H](Nc2cccc(-c3sc(C(=O)O)c(OCC(=O)O)c3Cl)c2)CCN1S(=O)(=O)Cc1cccc(NC(=O)[C@H]2[C@@H]3CN(C(=O)COc4cccc5c4CN(C4CCC(=O)NC4=O)C5=O)C[C@@H]32)c1` (stereo partly drawn) [Example 101], the half-maximal degradation concentration (DC50) (on PTPN2 (B16F10.4 cells); in assay [1]) was 0.05 to 0.2 µM in each case.

Consider `CC1(C)C[C@@H](Nc2cccc(-c3sc(C(=O)O)c(OCC(=O)O)c3Cl)c2)CCN1S(=O)(=O)Cc1cccc(NC(=O)COC2CN(C(=O)CNc3cccc4c3CN(C3CCC(=O)NC3=O)C4=O)C2)c1` (stereo partly drawn) [Example 92], for which the results for the DC50 (on PTPN2 (B16F10.4 cells); in assay [1]) were 0.2 to 1 µM and 0.05 to 0.2 µM, respectively.

As for `Cn1c(=O)n(C2CCC(=O)NC2=O)c2ccc(CN3CCN(C(=O)Nc4cccc(CS(=O)(=O)N5CC[C@H](Nc6cccc(-c7sc(C(=O)O)c(OCC(=O)O)c7Cl)c6)CC5(C)C)c4)CC3)cc21` (stereo partly drawn) [Example 221, 3-(carboxymethoxy)-4-chloro-5-[3-[[(4S)-1-[[3-[[4-[[1-(2,6-dioxo-3-piperidyl)-3-methyl-2-oxo-benzimidazol-5-yl]methyl]piperazine-1-carbonyl]amino]phenyl]methylsulfonyl]-2,2-dimethyl-4-piperidyl]amino]phenyl]thiophene-2-carboxylic acid], the DC50 (at PTPN2 (B16F10.4 cells); in assay [1]) was 0.2 to 1 µM each time.

As to `CC1(C)C[C@@H](Nc2cccc(-c3sc(C(=O)O)c(OCC(=O)O)c3Cl)c2)CCN1S(=O)(=O)Cc1cccc(NC(=O)C2CN(C(=O)CNc3ccc4c(c3)CN(C3CCC(=O)NC3=O)C4=O)C2)c1` (stereo partly drawn) [Example 57, 3-(carboxymethoxy)-4-chloro-5-[3-[[(4S)-1-[[3-[[1-[2-[[2-(2,6-dioxo-3-piperidyl)-1-oxo-isoindolin-5-yl]amino]acetyl]azetidine-3-carbonyl]amino]phenyl]methylsulfonyl]-2,2-dimethyl-4-piperidyl]amino]phenyl]thiophene-2-carboxylic acid], the DC50 at PTPN2 (B16F10.4 cells) was at least 1 µM; in assay [1], 0.05 to 0.2 µM.

On to `Cn1c(=O)n(C2CCC(=O)NC2=O)c2ccc(C3CCCN(C(=O)Nc4cccc(CS(=O)(=O)N5CC[C@H](Nc6cccc(-c7sc(C(=O)O)c(OCC(=O)O)c7Cl)c6)CC5(C)C)c4)C3)cc21` (stereo partly drawn) [Example 203, 3-(carboxymethoxy)-4-chloro-5-[3-[[(4S)-1-[[3-[[3-[1-(2,6-dioxo-3-piperidyl)-3-methyl-2-oxo-benzimidazol-5-yl]piperidine-1-carbonyl]amino]phenyl]methylsulfonyl]-2,2-dimethyl-4-piperidyl]amino]phenyl]thiophene-2-carboxylic acid], for which the figures for the DC50 (at PTPN2 (B16F10.4 cells); in assay [1]) were 0.05 to 0.2 µM and 0.2 to 1 µM, respectively.

Turning to `O=C(O)COc1c(C(=O)O)sc(-c2cccc(NC3CCN(S(=O)(=O)Cc4cccc(NC(=O)CNc5ccc6c(c5)CN(C5CCC(=O)NC5=O)C6=O)c4)CC3)c2)c1Cl` (stereo not drawn) [Example 36, 3-(carboxymethoxy)-4-chloro-5-[3-[[1-[[3-[[2-[[2-(2,6-dioxo-3-piperidyl)-1-oxo-isoindolin-5-yl]amino]acetyl]amino]phenyl]methylsulfonyl]-4-piperidyl]amino]phenyl]thiophene-2-carboxylic acid], the DC50 (on PTPN2 (B16F10.4 cells); in assay [1]) was 0.2 to 1 µM throughout.

In the case of `Cn1c(=O)n(C2CCC(=O)NC2=O)c2ccc([C@@H]3CCN(C(=O)Nc4cccc(CS(=O)(=O)N5CC[C@H](Nc6cccc(-c7sc(C(=O)O)c(OCC(=O)O)c7Cl)c6)CC5(C)C)c4)C[C@@H]3F)cc21` (stereo in doubt) [Example 172], the DC50 (at PTPN2 (B16F10.4 cells); in assay [1]) was under 0.05 µM each time.

For the compound `CC1(C)C[C@@H](Nc2cccc(-c3sc(C(=O)O)c(OCC(=O)O)c3Cl)c2)CCN1S(=O)(=O)Cc1cccc(NC(=O)[C@H]2[C@@H]3CN(C(=O)CNc4cccc5c4CN(C4CCC(=O)NC4=O)C5=O)C[C@@H]32)c1` (stereo partly drawn) [Example 98], the results for the DC50 (at PTPN2 (B16F10.4 cells); in assay [1]) were 0.2 to 1 µM and 0.05 to 0.2 µM, respectively.

The term DC50 denotes the midpoint of the concentration-degradation curve. A low value points to a more potent degrader.
